Read-outs that look alike come from different tables or passages of the source.
Columns and labels:
Type in all cases: biochemical
Lck = biological target: T1, Lck (Homo sapiens, UniProt P06239); test: Kinase inhibition assay (33P transfer), Lck; conditions: read-out: Lck-1
T1 construct: Kinases are expressed as either kinase domains or full length constructs; made in house
Method in brief: (§1)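 Enzyme activity is taken as the amount of 33PO4 moved from ATP onto poly(Glu, Tyr) 4:1 or poly(Arg, Ser) 3:1 fixed to the plate surface. Unbound label is removed with 0.5% phosphoric acid before scintillation counting.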

Zap-70 = biological target: T2, Zap-70 (Homo sapiens, UniProt P43403); test: Kinase inhibition assay (33P transfer), Zap-70; conditions: read-out: Zap-1
T2 construct: Kinases are expressed as either kinase domains or full length constructs; made in house
T2 sequence (P43403 1-619): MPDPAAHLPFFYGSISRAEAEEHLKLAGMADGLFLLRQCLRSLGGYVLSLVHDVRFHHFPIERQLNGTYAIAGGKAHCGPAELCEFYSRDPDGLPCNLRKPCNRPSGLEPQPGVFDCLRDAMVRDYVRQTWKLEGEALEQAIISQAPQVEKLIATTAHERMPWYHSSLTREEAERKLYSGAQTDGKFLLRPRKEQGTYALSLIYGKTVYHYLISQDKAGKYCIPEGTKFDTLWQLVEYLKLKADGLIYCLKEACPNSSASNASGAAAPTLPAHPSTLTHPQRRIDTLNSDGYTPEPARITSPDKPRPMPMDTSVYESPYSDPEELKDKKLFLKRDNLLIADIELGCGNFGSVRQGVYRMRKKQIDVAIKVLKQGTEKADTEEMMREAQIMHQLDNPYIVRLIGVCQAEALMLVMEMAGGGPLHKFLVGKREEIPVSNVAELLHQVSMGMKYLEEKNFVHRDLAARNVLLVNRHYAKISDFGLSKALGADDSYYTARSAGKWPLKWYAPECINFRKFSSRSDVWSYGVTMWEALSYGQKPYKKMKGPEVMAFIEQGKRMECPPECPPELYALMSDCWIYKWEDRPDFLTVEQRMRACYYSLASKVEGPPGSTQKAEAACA
Method in brief: as §1

Itk = biological target: T3, Itk (Homo sapiens, UniProt Q08881); test: Kinase inhibition assay (33P transfer), Itk; conditions: read-out: Itk-1
T3 construct: Kinases are expressed as either kinase domains or full length constructs; made in house
T3 sequence (Q08881 1-620): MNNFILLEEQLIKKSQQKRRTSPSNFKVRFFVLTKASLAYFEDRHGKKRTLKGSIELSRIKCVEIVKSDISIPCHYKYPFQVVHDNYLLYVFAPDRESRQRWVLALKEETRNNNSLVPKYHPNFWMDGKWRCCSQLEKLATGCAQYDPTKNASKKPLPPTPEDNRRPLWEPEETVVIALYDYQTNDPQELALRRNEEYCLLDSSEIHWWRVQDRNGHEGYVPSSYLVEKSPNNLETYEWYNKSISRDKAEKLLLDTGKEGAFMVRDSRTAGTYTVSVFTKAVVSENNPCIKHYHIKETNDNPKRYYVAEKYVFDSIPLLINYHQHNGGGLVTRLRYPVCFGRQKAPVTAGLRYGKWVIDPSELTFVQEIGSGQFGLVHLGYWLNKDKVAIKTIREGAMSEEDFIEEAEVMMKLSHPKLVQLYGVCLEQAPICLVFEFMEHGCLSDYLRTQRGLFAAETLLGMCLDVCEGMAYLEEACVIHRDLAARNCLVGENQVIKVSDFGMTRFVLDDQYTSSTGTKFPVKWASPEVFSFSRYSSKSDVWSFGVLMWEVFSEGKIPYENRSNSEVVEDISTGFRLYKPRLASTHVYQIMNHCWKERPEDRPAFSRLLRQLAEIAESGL
Method in brief: (§2)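 Each enzyme, purified to near homogeneity by affinity chromatography, was incubated with ATP carrying 33P and a substrate polymer fixed to the plate. Unbound label was removed with dilute phosphoric acid (0.5%) before adding scintillant and counting. Potency is given as the compound level cutting label uptake by 50%.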

EGFR = biological target: T4, EGFR (Homo sapiens, UniProt P00533); test: Kinase inhibition assay (33P transfer), EGFR; conditions: Table 2, kinase inhibition class; read-out: EGFR-1
T4 construct: Kinases are expressed as either kinase domains or full length constructs; made in house
Method in brief: as §2

ErbB2 = biological target: T5, ErbB2 (Homo sapiens, UniProt P04626); test: Kinase inhibition assay (33P transfer), ErbB2; conditions: read-out: ErbB2-2
T5 construct: Kinases are expressed as either kinase domains or full length constructs; made in house
Source text: The inhibitor compounds described herein are screened in the following manner. Kinases suitable for use in the following protocol to determine kinase activity of the compounds described herein include, -but are not limited to: Lck, Lyn, Src, Fyn, Syk, Zap-70, Itk, Tec, Btk, EGFR, ErbB2, Kdr, Flt-1, Flt-3, Tek, c-Met, InsR, and AKT.
Kinases are expressed as either kinase domains or full length constructs fused to glutathione S-transferase (GST) or polyHistidine tagged fusion proteins in either E. colior Baculovirus-High Five expression systems. They are purified to near homogeneity by affinity chromatography essentially as previously described (Lehr et al., 1996; Gish et al., 1995). In some instances, kinases are co-expressed or mixed with purified or partially purified regulatory polypeptides prior to measurement of activity.
Kinase activity and inhibition are measured essentially by established protocols (Braunwalder et al., 1996). Briefly, The transfer of ^33PO4 from ATP to the synthetic substrates poly(Glu, Tyr) 4:1 or poly(Arg, Ser) 3:1 attached to the bioactive surface of microtiter plates serves as the basis to evaluate enzyme activity. After an incubation period, the amount of phosphate transferred is measured by first washing the plate with 0.5% phosphoric acid, adding liquid scintillant, and then counting in a liquid scintillation detector. The IC50 is determined by the concentration of compound that causes a 50% reduction in the amount of […] incorporated onto the substrate bound to the plate.

Kdr = biological target: T6, Kdr (Homo sapiens, UniProt P35968); test: Kinase inhibition assay (33P transfer), Kdr
T6 construct: Kinases are expressed as either kinase domains or full length constructs; made in house
Method in brief: as §1

c-Met = biological target: T7, c-Met (Homo sapiens, UniProt P08581); test: Kinase inhibition assay (33P transfer), c-Met; conditions: Table 2, kinase inhibition class; read-out: Met-1
T7 construct: Kinases are expressed as either kinase domains or full length constructs; made in house
Method in brief: as §2

AKT = biological target: T8, AKT (Homo sapiens, UniProt Q9Y243); test: Kinase inhibition assay (33P transfer), AKT; conditions: Table 2, kinase inhibition class; read-out: AKT3-1
T8 construct: Kinases are expressed as either kinase domains or full length constructs; made in house
Method in brief: as §1

IGFR-1 = biological target: T9, IGFR-1 (Homo sapiens, UniProt P08069); test: Kinase inhibition assay, IGFR-1 (Table 2); conditions: Table 2, kinase inhibition class
T9 construct: Kinases are expressed as either kinase domains or full length constructs; made in house

PDGFRB = biological target: T10, PDGFRB (Homo sapiens, UniProt P09619); test: Kinase inhibition assay (33P transfer), PDGFRB; conditions: read-out: PDGFRB-1
T10 construct: Kinases are expressed as either kinase domains or full length constructs; made in house
T10 sequence (P09619 33-1106, species assumed): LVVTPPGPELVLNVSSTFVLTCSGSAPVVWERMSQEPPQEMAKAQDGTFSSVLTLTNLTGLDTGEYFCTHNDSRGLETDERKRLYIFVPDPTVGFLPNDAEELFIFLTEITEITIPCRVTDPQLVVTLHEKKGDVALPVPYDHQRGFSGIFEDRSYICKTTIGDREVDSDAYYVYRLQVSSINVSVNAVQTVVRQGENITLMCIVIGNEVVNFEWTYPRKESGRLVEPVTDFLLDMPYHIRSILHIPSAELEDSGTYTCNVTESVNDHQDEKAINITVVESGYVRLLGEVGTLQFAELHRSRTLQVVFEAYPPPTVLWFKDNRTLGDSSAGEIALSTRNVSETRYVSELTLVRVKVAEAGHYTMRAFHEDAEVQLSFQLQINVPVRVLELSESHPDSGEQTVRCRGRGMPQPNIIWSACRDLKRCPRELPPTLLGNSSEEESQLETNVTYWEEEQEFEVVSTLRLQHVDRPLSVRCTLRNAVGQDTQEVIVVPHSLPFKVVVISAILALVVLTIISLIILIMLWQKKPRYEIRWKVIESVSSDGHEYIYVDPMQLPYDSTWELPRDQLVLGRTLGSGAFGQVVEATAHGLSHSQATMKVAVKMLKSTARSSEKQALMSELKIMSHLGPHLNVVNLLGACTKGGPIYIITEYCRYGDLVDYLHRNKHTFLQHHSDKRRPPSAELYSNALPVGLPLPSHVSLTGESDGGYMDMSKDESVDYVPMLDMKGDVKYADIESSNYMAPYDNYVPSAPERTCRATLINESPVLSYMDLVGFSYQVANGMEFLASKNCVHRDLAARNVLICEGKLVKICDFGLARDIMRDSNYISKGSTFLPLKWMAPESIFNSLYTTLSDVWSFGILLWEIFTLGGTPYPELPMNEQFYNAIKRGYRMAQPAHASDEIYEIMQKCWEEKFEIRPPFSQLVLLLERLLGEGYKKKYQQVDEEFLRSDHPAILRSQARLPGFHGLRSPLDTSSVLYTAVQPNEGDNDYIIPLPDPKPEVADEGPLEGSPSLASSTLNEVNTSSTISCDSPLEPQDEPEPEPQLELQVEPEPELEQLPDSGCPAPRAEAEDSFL

T1 sequence (P06239 whole entry, species assumed, the tested form may be a part): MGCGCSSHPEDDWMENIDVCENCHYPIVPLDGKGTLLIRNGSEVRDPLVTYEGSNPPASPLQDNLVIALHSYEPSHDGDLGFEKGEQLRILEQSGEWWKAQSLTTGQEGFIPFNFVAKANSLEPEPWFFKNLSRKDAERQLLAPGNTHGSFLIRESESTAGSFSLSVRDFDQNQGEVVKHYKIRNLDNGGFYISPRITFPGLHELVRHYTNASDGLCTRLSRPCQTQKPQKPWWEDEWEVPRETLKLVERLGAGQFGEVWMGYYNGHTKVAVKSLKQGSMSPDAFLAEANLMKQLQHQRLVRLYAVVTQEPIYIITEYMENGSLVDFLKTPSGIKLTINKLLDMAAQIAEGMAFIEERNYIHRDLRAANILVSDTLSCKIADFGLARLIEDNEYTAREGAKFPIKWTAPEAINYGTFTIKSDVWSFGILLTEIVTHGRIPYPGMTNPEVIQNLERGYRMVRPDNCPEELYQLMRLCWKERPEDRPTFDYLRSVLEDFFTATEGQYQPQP
T7 sequence (P08581 25-1390): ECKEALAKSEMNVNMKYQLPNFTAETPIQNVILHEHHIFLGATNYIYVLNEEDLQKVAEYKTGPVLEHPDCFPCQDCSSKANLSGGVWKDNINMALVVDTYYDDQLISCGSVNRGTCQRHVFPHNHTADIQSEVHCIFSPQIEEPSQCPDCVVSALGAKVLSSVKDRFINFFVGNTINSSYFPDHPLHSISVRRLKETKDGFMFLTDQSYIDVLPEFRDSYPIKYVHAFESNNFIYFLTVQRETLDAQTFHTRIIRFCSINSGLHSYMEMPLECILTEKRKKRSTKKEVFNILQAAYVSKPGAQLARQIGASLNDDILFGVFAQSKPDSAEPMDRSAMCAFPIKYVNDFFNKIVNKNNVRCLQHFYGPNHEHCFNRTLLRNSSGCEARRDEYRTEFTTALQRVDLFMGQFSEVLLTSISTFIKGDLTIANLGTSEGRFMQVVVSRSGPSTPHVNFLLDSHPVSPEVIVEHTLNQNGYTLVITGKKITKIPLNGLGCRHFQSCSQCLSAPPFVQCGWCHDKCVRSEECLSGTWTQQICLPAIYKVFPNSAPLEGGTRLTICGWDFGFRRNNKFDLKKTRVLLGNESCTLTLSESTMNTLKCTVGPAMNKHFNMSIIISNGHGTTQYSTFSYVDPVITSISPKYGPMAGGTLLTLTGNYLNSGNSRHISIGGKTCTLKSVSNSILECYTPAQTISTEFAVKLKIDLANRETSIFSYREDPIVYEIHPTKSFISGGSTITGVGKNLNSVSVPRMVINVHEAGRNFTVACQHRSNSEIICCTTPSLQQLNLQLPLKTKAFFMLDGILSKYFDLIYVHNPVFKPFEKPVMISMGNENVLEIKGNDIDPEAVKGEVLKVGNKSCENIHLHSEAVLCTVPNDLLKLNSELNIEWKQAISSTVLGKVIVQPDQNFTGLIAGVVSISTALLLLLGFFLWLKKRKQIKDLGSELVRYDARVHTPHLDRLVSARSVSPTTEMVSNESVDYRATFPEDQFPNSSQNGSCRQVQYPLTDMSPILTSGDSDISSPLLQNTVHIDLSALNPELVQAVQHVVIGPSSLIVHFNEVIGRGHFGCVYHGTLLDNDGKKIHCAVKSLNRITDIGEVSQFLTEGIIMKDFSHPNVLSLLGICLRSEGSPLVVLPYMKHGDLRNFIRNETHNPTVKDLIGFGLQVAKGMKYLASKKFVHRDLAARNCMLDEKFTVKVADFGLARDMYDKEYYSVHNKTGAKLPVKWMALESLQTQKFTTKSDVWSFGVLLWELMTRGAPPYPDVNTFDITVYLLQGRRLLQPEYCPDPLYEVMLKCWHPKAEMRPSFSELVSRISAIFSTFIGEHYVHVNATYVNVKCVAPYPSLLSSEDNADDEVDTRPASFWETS
T9 sequence (P08069 31-1367): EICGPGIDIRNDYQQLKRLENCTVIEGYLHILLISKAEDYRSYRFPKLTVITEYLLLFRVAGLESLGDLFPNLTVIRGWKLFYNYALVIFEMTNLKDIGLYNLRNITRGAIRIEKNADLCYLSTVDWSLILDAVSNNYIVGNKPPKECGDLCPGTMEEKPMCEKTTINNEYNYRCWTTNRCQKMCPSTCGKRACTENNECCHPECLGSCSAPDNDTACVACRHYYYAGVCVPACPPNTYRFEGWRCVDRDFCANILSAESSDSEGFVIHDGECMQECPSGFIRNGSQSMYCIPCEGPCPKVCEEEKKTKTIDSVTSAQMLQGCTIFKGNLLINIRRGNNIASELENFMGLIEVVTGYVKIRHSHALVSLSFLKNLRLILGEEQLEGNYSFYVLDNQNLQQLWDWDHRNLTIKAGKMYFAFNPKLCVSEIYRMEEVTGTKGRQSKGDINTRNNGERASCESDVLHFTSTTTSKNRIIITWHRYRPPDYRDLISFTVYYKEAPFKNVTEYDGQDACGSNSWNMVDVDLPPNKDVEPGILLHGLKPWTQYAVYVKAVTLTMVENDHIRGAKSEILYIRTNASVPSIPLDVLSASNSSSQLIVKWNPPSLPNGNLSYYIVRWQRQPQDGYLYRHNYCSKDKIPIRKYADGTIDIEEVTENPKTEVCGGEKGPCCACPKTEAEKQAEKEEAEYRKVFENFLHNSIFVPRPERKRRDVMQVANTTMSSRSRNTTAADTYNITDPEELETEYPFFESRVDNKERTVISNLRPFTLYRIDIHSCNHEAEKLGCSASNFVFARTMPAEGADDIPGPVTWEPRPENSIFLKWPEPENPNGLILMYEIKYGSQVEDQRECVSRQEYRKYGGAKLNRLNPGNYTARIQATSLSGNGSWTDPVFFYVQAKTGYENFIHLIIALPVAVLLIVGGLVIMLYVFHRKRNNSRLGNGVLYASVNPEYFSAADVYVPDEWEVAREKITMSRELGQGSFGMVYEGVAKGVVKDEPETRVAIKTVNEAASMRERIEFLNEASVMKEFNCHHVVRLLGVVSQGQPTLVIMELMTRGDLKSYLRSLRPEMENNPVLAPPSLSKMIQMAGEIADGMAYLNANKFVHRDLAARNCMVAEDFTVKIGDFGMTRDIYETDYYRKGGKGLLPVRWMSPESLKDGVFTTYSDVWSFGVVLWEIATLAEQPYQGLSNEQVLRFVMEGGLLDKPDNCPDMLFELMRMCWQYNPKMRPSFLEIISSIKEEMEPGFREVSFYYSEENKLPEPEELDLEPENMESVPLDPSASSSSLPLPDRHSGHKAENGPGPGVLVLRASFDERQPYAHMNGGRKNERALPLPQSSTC
T8 sequence (Q9Y243 whole entry, the tested form may be a part): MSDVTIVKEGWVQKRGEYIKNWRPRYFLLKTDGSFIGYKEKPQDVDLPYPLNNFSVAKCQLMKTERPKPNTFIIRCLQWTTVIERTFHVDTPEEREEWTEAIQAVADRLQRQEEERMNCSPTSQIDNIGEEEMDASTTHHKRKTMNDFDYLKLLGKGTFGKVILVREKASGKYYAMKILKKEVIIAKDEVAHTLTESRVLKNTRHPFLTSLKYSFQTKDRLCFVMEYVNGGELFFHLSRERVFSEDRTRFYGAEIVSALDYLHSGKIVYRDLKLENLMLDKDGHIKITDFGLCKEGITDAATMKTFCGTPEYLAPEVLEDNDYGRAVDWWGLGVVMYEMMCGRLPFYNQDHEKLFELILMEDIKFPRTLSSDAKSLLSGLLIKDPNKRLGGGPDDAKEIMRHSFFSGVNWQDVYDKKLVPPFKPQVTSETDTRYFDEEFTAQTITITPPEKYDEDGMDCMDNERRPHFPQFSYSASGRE

Row | IC50 (Lck) [µM] | IC50 (Zap-70) [µM] | IC50 (Itk) [µM] | IC50 (EGFR) [µM] | IC50 (ErbB2) [µM] | IC50 (Kdr; read-out: KDR-1) [µM] | IC50 (c-Met) [µM] | IC50 (AKT) [µM] | IC50 (IGFR-1) [µM] | IC50 (PDGFRB) [µM] | Structure (SMILES) | IC50 (Kdr; KDR-1) [µM]
1 | 1.14 to 6.84 | > 12.8 | > 12.8 | < 1.14 | < 1.14 | 1.14 to 6.84 | 1.14 to 6.84 | > 12.8 | 1.14 to 6.84 | 1.14 to 6.84 | CN(c1cccc(Cl)c1)c1ncnc(Nc2ccc3[nH]ccc3c2)n1 [Compound 714] | 
2 | > 11.7 | > 11.7 | > 11.7 | > 11.7 | 6.22 to 9.07 | > 11.7 | > 11.7 | > 11.7 | > 11.7 | > 11.7 | COc1ccc(Nc2ncnc(NCc3c(C)cccc3Cl)n2)cc1OC [Compound 791] | 
3 | 0.841 to 5.05 | 5.05 to 7.36 | 0.841 to 5.05 | < 0.841 | < 0.841 | < 0.841 | 0.841 to 5.05 | 0.841 to 5.05 | 0.841 to 5.05 | < 0.841 | c1ccc(CNc2nc3ccccc3n2-c2ncnc(Nc3cccc(Cc4nnn[nH]4)c3)n2)cc1 [Compound 957] | 
4 | 0.937 to 5.62 | > 10.5 | > 10.5 | < 0.937 | 5.62 to 8.2 | > 10.5 | 5.62 to 8.2 | > 10.5 | > 10.5 | > 10.5 | CN(c1cccc(Cl)c1)c1ncnc(Nc2ccc(NC(=O)OC(C)(C)C)cc2)n1 [Compound 750] | 
5 | 7.37 to 10.7 | > 13.8 | > 13.8 | < 1.23 | 1.23 to 7.37 | > 13.8 | 1.23 to 7.37 | > 13.8 | > 13.8 | 7.37 to 10.7 | Cc1cccc(Nc2ncnc(N(C)c3cccc(Cl)c3)n2)c1 [Compound 709] | 
6 | 4.67 to 6.82 | 4.67 to 6.82 | > 8.76 | > 8.76 | 6.82 to 8.76 | < 0.779 | 4.67 to 6.82 | > 8.76 | > 8.76 | 0.779 to 4.67 | COc1ccc(Nc2nc3ccccc3n2-c2ncnc(Nc3cc(OC)c(OC)c(OC)c3)n2)c(C)c1 [Compound 558] | 
7 | < 0.953 | > 10.7 | > 10.7 | < 0.953 | < 0.953 | 0.953 to 5.72 | 0.953 to 5.72 | > 10.7 | 5.72 to 8.34 | 0.953 to 5.72 | COc1cc(Nc2ncnc(N(C)c3ccc(F)c(Cl)c3)n2)cc(OC)c1OC [Compound 710] | 
8 | 1.06 to 6.36 | > 11.9 | > 11.9 | < 1.06 | 6.36 to 9.27 | < 1.06 | 1.06 to 6.36 | > 11.9 | > 11.9 | 1.06 to 6.36 | COc1ccc(Nc2ncnc(N3CCCc4ccc(C)cc43)n2)cc1OC [Compound 567] | 
9 | < 1.04 | 6.21 to 9.06 | 1.04 to 6.21 | 1.04 to 6.21 | 6.21 to 9.06 | < 1.04 | 1.04 to 6.21 | 6.21 to 9.06 | < 1.04 | 1.04 to 6.21 | NC(=O)Cc1ccc(Nc2ncnc(Nc3cc(-c4ccccc4)n[nH]3)n2)cc1 [Compound 573] | 
10 | 4.58 to 6.68 | > 8.59 | > 8.59 | 6.68 to 8.59 | 0.764 to 4.58 | 0.764 to 4.58 | > 8.59 | > 8.59 | 6.68 to 8.59 | 4.58 to 6.68 | COc1cc(Nc2ncnc(-n3c(NC4CCCc5ccccc54)nc4ccccc43)n2)cc(OC)c1OC (centres unmarked) [Compound 1043] | 
11 | 1.07 to 6.41 | > 12 | 1.07 to 6.41 | 1.07 to 6.41 | 1.07 to 6.41 | 1.07 to 6.41 | < 1.07 | > 12 | 1.07 to 6.41 | < 1.07 | Cc1ccc2c(c1)CCCN2c1ncnc(Nc2ccc3ncsc3c2)n1 [Compound 773] | 
12 | 5.54 to 8.09 | > 10.4 | > 10.4 | < 0.924 | > 10.4 | 0.924 to 5.54 | > 10.4 | > 10.4 | > 10.4 | 0.924 to 5.54 | CC(=O)NS(=O)(=O)c1ccc(Nc2ncnc(N(C)c3cccc(Cl)c3)n2)cc1 [Compound 751] | 
13 | > 13.4 | > 13.4 | > 13.4 | 1.19 to 7.17 | > 13.4 | > 13.4 | > 13.4 | > 13.4 | > 13.4 | > 13.4 | CCN(CC)CCNc1ncnc(N(C)c2cccc(Cl)c2)n1 [Compound 745] | 
14 | > 11.8 | 6.3 to 9.19 | > 11.8 | > 11.8 | > 11.8 | > 11.8 | > 11.8 | > 11.8 | > 11.8 | > 11.8 | CN(c1cccc(Cl)c1)c1ncnc(Nc2ccc(Cl)c(Cl)c2)n1 [Compound 708] | 
15 | 0.839 to 5.04 | 5.04 to 7.35 | 0.839 to 5.04 | 0.839 to 5.04 | 0.839 to 5.04 | < 0.839 | 0.839 to 5.04 | 5.04 to 7.35 | 0.839 to 5.04 | 0.839 to 5.04 | c1ccc(CNc2nc3ccccc3n2-c2ncnc(Nc3cccc(Cc4nnn[nH]4)c3)n2)nc1 [Compound 958] | 
16 | 0.925 to 5.55 | 5.55 to 8.09 | 0.925 to 5.55 | < 0.925 | < 0.925 | 0.925 to 5.55 | 0.925 to 5.55 | 8.09 to 10.4 | 0.925 to 5.55 | 0.925 to 5.55 | N#CCc1ccc(Nc2ncnc(Nc3ccc4c(cnn4Cc4ccccc4)c3)n2)cc1 [Compound 731] | 

Row | Structure (SMILES) | IC50 (Lck) [µM] | IC50 (Zap-70) [µM] | IC50 (Itk) [µM] | IC50 (EGFR) [µM] | IC50 (ErbB2) [µM] | IC50 (Kdr; read-out: KDR-1) [µM] | IC50 (c-Met) [µM] | IC50 (AKT) [µM] | IC50 (IGFR-1) [µM] | IC50 (PDGFRB) [µM] | IC50 (Kdr; KDR-1) [µM]
17 | COc1cc(Nc2ncnc(-n3c(NCc4ccc(O)cc4)nc4ccccc43)n2)cc(OC)c1OC [Compound 561] | < 0.801 | > 9.01 | > 9.01 | > 9.01 | > 9.01 |  | > 9.01 | > 9.01 | > 9.01 | < 0.801 | < 0.801
